Structures are written as SMILES. Like-named read-outs stand apart in the source and are kept apart here.

Experimental findings from paper PMC6364417, “Kinase inhibitor library screening identifies synergistic drug combinations effective in sensitive and resistant melanoma cells” (Journal of Experimental & Clinical Cancer Research : CR, 2019) are described below.

Experiment in all cases: Kinase inhibitor library screening, PrestoBlue cell viability, 1 or 10 μM, 72 h
In one series the test system is 501Mel cells (parental). The protocol: (§1) After 72 h of treatment, cell viability was assessed using the PrestoBlue Cell Viability Reagent (ThermoFisher Scientific). Measurements were performed with the CLARIOstar Monochromator microplate reader (BMG Labtech).
(§2) Kinase inhibitor library screening. […] Each cell line was treated in its sensitive form (parental), and also as 2 resistant derivatives, which were made resistant to either Vemurafenib (XP) or Dabrafenib (GP). Drugs were added at 2 different concentrations, 1 and 10 μM, for 72 h and cell viability was assessed using the PrestoBlue Cell Viability assay. Results are depicted as % viability compared to untreated cells. Each cell line was analyzed at least in duplicate. […] (XLSX 95 kb)

Series [1] deals with 501Mel-GP cells (Dabrafenib-resistant). Conditions: 501Mel GP. As to the method: as §1, §2
Series [2] concerns 501Mel-XP cells (Vemurafenib-resistant). The protocol: as §1, §2
A further series has as its system A375 cells (parental). The protocol:
as §1, §2

For series [3], the system named is A375-GP cells (Dabrafenib-resistant). The protocol: as §1, §2
For series [4], the system named is A375-XP cells (Vemurafenib-resistant). As to the method:
as §1, §2

The next series has as its system IGR37 cells (parental). The protocol:
as §1, §2

Series [5] deals with IGR37-GP cells (Dabrafenib-resistant). As to the method:
as §1, §2

Series [6] deals with IGR37-XP cells (Vemurafenib-resistant). The protocol:
as §1, §2

[7] abbreviates: 501Mel Parental, 1μΜ, 72 h, in %.
Setting [8] is: 501Mel Parental, 10μΜ, 72 h, in %.
[9] abbreviates: IGR37 Parental, 1μΜ, 72 h, in %.
Setting [10] is: IGR37 Parental, 10μΜ, 72 h, in %.

On to `Cc1ccc(NC(=O)c2ccc(CN3CCN(C)CC3)cc2)cc1Nc1nc(-c2cccnc2)cs1` [Masitinib (AB1010)], for which the “cell viability (kinase inhibitor library screening)” value in the series on 501Mel cells (parental) (501Mel Parental, 10μΜ, 72 h) was 88.8%; in series [1] (1μΜ, 72 h), 103.1%; in series [1] (10μΜ, 72 h), 85.2%; in series [2] (501Mel XP, 1μΜ, 72 h), 94.5%; in series [2] (501Mel XP, 10μΜ, 72 h) it was 20.4%; in the series with A375 cells (parental) (A375 Parental, 10μΜ, 72 h), 87.9%. Moreover, the “cell viability (kinase inhibitor library screening)” value in [3] (A375 GP, 1μΜ, 72 h) worked out at 98.6%; in [3] (A375 GP, 10μΜ, 72 h), 85.2%; in [4] (A375 XP, 1μΜ, 72 h), 105.3%; in series [4] (A375 XP, 10μΜ, 72 h), 94.5%; in the series on IGR37 cells (parental) (IGR37 Parental, 1μΜ, 72 h), 98.6%; with IGR37 cells (parental) (IGR37 Parental, 10μΜ, 72 h), 92.0%. For the same compound, the “cell viability (kinase inhibitor library screening)” value is on record as 77.4% in series [5] (IGR37 GP, 10μΜ, 72 h); 103.2% in [6] (IGR37 XP, 1μΜ, 72 h); 49.1% in series [6] (IGR37 XP, 10μΜ, 72 h).
As for `CNC(=O)c1ccccc1Nc1nc(Nc2ccc(N3CCOCC3)cc2OC)ncc1Cl` [NVP-TAE226], the “cell viability, 501Mel Parental, 1μΜ” value in the series on 501Mel cells (parental) (setting [7]) is given as 69.2. In addition, the “cell viability, 501Mel Parental, 10μΜ” value with 501Mel cells (parental) (setting [8]) was found to be 38.3. Further, the “cell viability, 501Mel GP, 1μΜ” value in series [1] (1μΜ, 72 h, in %) stood at 72.0. Further, the “cell viability, 501Mel GP, 10μΜ” value in series [1] (10μΜ, 72 h, in %) worked out at 34.3. Besides, in series [2] (501Mel XP, 1μΜ, 72 h, in %), the “cell viability, 501Mel XP, 1μΜ” value stood at 67.5. Besides, the “cell viability, 501Mel XP, 10μΜ” value in series [2] (501Mel XP, 10μΜ, 72 h, in %) was found to be 20.7. The “cell viability, A375 Parental, 1μΜ” value in the series with A375 cells (parental) (A375 Parental, 1μΜ, 72 h, in %) was determined as 51.1. Besides, the “cell viability, A375 Parental, 10μΜ” value in the series on A375 cells (parental) (A375 Parental, 10μΜ, 72 h, in %) is 12.7. In series [3] (A375 GP, 1μΜ, 72 h, in %), the “cell viability, A375 GP, 1μΜ” value is listed as 41.6. The “cell viability, A375 GP, 10μΜ” value in series [3] (A375 GP, 10μΜ, 72 h, in %) turned out to be 16.3. Besides, the “cell viability, A375 XP, 1μΜ” value in series [4] (A375 XP, 1μΜ, 72 h, in %) is listed as 52.4. For the same compound, in [4] (A375 XP, 10μΜ, 72 h, in %), the “cell viability, A375 XP, 10μΜ” value turned out to be 21.6. Besides, the “cell viability, IGR37 Parental, 1μΜ” value in the series with IGR37 cells (parental) (setting [9]) is 82.8. Further, in the series with IGR37 cells (parental) (setting [10]), the “cell viability, IGR37 Parental, 10μΜ” value came out at 36.2. Moreover, the cell viability, IGR37 GP, 10μΜ in series [5] (IGR37 GP, 10μΜ, 72 h) was determined as 3.7%. Besides, the “cell viability, IGR37 GP, 1μΜ” value in series [5] (IGR37 GP, 1μΜ, 72 h, in %) was 59.0. For the same compound, in series [6] (IGR37 XP, 10μΜ, 72 h), the cell viability, IGR37 XP, 10μΜ was determined as 1.5%. Also, the “cell viability, IGR37 XP, 1μΜ” value in series [6] (IGR37 XP, 1μΜ, 72 h, in %) is 34.8.
For `C[S+]([O-])c1ccc(-c2nc(-c3ccncc3)c(-c3ccc(F)cc3)[nH]2)cc1` (stereo not shown) [SB 203580], in the series on 501Mel cells (parental) (in %), the “Cell viability in kinase inhibitor library screening, 501Mel Parental, 1μΜ” value is reported as 108.7 and the “Cell viability in kinase inhibitor library screening, 501Mel Parental, 10μΜ” value is 95.5. The “Cell viability in kinase inhibitor library screening, 501Mel XP, 10μΜ” value in series [2] (in %) is 92.5. Also, in the series on A375 cells (parental), the “Cell viability in kinase inhibitor library screening, A375 Parental, 1μΜ” value was found to be 112.0 and the “Cell viability in kinase inhibitor library screening, A375 Parental, 10μΜ” value is listed as 83.0. In [3], the “Cell viability in kinase inhibitor library screening, A375 GP, 1μΜ” value is 93.4 and the “Cell viability in kinase inhibitor library screening, A375 GP, 10μΜ” value is reported as 98.4. Further, in [4], the “Cell viability in kinase inhibitor library screening, A375 XP, 1μΜ” value came to 111.6 and the “Cell viability in kinase inhibitor library screening, A375 XP, 10μΜ” value came out at 103.1. In addition, in the series on IGR37 cells (parental) (in %), the “Cell viability in kinase inhibitor library screening, IGR37 Parental, 1μΜ” value was determined as 116.2 and the “Cell viability in kinase inhibitor library screening, IGR37 Parental, 10μΜ” value came to 92.9. Moreover, in series [5], the Cell viability in kinase inhibitor library screening, IGR37 GP, 10μΜ is 86.6%. The “Cell viability in kinase inhibitor library screening, IGR37 GP, 1μΜ” value in series [5] (in %) worked out at 105.2. In addition, in series [6], the Cell viability in kinase inhibitor library screening, IGR37 XP, 10μΜ is 62.9%. Also, the “Cell viability in kinase inhibitor library screening, IGR37 XP, 1μΜ” value in series [6] (in %) amounted to 103.3.
As to `Cn1cnc(N)c2ncnc1-2` [3-Methyladenine], the “Cell viability in kinase inhibitor library screening, 501Mel Parental, 1μΜ” value in the series on 501Mel cells (parental) (setting [7]) is given as 107.2. Moreover, the “Cell viability in kinase inhibitor library screening, 501Mel Parental, 10μΜ” value in the series on 501Mel cells (parental) (setting [8]) is 107.1. Also, the “Cell viability in kinase inhibitor library screening, 501Mel GP, 10μΜ” value in [1] (10μΜ, 72 h, in %) was determined as 93.3. Also, the “Cell viability in kinase inhibitor library screening, 501Mel XP, 10μΜ” value in series [2] (501Mel XP, 10μΜ, 72 h, in %) was found to be 87.7. For the same compound, in the series with A375 cells (parental) (A375 Parental, 10μΜ, 72 h), the “Cell viability in kinase inhibitor library screening, A375 Parental, 10μΜ” value was determined as 100.5. For the same compound, the “Cell viability in kinase inhibitor library screening, A375 Parental, 1μΜ” value in the series with A375 cells (parental) (A375 Parental, 1μΜ, 72 h) is listed as 112.2. Besides, in series [3] (A375 GP, 1μΜ, 72 h), the “Cell viability in kinase inhibitor library screening, A375 GP, 1μΜ” value turned out to be 104.5. Also, the “Cell viability in kinase inhibitor library screening, A375 XP, 1μΜ” value in series [4] (A375 XP, 1μΜ, 72 h) stood at 106.2. Further, the “Cell viability in kinase inhibitor library screening, A375 XP, 10μΜ” value in [4] (A375 XP, 10μΜ, 72 h) came out at 109.5. Further, the “Cell viability in kinase inhibitor library screening, IGR37 Parental, 1μΜ” value in the series on IGR37 cells (parental) (setting [9]) was 108.7. Besides, the “Cell viability in kinase inhibitor library screening, IGR37 Parental, 10μΜ” value in the series with IGR37 cells (parental) (setting [10]) was determined as 106.4. In series [5] (IGR37 GP, 10μΜ, 72 h), the Cell viability in kinase inhibitor library screening, IGR37 GP, 10μΜ came out at 97%. Further, the “Cell viability in kinase inhibitor library screening, IGR37 GP, 1μΜ” value in series [5] (IGR37 GP, 1μΜ, 72 h, in %) is reported as 107.1.
As for `NC(=O)c1ccc(-c2nc(-c3ccc4c(c3)OCO4)c(-c3ccccn3)[nH]2)cc1` [SB 431542], the “cell viability (kinase inhibitor library screening)” value came to 98.3 in the series on 501Mel cells (parental) (501Mel Parental, 1μΜ, in %); 102.6 in series [1] (1μΜ, in %); 85.7 in [1] (10μΜ, in %); 93.8 in [2] (501Mel XP, 1μΜ, in %); 79.9 in [2] (501Mel XP, 10μΜ, in %); 106.2 in the series with A375 cells (parental) (A375 Parental, 1μΜ, in %). In addition, the “cell viability (kinase inhibitor library screening)” value in series [3] (A375 GP, 1μΜ, in %) came to 100.0; in series [3] (A375 GP, 10μΜ, in %) it was 98.5; in [4] (A375 XP, 1μΜ, in %), 109.0; in series [4] (A375 XP, 10μΜ, in %) it was 106.6; with IGR37 cells (parental) (IGR37 Parental, 10μΜ, in %) it was 97.8; in [5] (IGR37 GP, 1μΜ, in %) it was 100.4. Also, the “cell viability (kinase inhibitor library screening)” value in series [5] (IGR37 GP, 10μΜ, in %) is on record as 87.9.
Consider `COc1cc2nccc(Oc3ccc(NC(=O)Nc4cc(C)on4)c(Cl)c3)c2cc1OC` [Tivozanib (AV-951)], for which the “cell viability (kinase inhibitor library screening)” value in the series with 501Mel cells (parental) (501Mel Parental, 10μΜ, in %) was 74.1; in [1] (1μΜ, in %), 103.1; in series [1] (10μΜ, in %), 58.3; in series [2] (501Mel XP, 1μΜ, in %), 97.3; in series [2] (501Mel XP, 10μΜ, in %), 64.2; in the series on A375 cells (parental) (A375 Parental, 1μΜ, in %), 104.6. Further, the “cell viability (kinase inhibitor library screening)” value in the series with A375 cells (parental) (A375 Parental, 10μΜ, in %) came to 60.4; in [3] (A375 GP, 1μΜ, in %), 99.1; in series [3] (A375 GP, 10μΜ, in %) it was 54.4; in [4] (A375 XP, 1μΜ, in %), 105.9; in series [4] (A375 XP, 10μΜ, in %), 77.7; in the series with IGR37 cells (parental) (IGR37 Parental, 1μΜ, in %), 97.2. In addition, the “cell viability (kinase inhibitor library screening)” value is listed as 83.4 with IGR37 cells (parental) (IGR37 Parental, 10μΜ, in %) and 55.2 in series [6] (IGR37 XP, 10μΜ, in %).
